# In PMC3574212 (Journal of medicinal chemistry, 2013):
# Structures can show the parent of a compound that is named as a salt.
# Columns and labels:
# EPAC2 = target: T1, EPAC2 (Mus musculus, UniProt Q9EQZ6); test: 8-NBD-cAMP competition binding assay; conditions: for Relative Potency (RA): RA = IC50, cAMP/ IC50, compound; for EPAC2 inhibitory activity (in words): 8-NBD-cAMP competition
# T1 sequence (Q9EQZ6 1-1011): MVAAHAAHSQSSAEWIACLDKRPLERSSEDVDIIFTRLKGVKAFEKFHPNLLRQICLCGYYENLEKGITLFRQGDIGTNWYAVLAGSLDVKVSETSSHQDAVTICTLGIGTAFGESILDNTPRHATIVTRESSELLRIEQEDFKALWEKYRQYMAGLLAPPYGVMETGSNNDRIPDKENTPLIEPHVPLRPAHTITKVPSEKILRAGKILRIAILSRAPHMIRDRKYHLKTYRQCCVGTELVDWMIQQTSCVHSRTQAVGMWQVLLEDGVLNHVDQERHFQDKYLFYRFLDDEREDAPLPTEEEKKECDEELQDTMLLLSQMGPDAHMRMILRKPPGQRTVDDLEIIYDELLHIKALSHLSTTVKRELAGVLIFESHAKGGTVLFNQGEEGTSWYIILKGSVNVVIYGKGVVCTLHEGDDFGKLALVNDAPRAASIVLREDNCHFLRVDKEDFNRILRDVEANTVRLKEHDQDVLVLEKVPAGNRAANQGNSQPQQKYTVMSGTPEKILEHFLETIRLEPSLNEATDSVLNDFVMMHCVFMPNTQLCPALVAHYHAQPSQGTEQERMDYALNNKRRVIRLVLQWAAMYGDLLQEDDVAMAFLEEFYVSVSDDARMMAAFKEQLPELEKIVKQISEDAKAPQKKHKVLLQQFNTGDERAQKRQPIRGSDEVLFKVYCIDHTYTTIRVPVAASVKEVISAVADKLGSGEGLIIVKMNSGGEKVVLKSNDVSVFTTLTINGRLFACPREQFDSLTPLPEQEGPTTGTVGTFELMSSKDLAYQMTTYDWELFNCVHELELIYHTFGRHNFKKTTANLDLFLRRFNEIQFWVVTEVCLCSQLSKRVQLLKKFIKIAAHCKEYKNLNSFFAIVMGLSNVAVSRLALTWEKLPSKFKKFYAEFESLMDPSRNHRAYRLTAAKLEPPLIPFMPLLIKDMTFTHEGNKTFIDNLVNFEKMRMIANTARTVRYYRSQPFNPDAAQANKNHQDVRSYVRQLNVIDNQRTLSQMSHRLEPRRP
# type I PKA holoenzyme = test: Counter screening assay, type I PKA holoenzyme kinase activity; type: biochemical; conditions: 25 µM compound, 0.1 mM cAMP
# type II PKA holoenzyme = test: Counter screening assay, type II PKA holoenzyme kinase activity; type: biochemical; conditions: 25 µM compound, 0.1 mM cAMP
Structure (SMILES),Relative Potency (RA) (EPAC2),IC50 (EPAC2) [µM],other results
"Cc1cc(C)c(S(=O)(=O)c2cc(C)c(C)cc2C)c(C)c1 [Compound 5a, 1,3,5-Trimethyl-2-(2,4,5-trimethylbenzenesulfonyl)benzene]",57.1,,
"CCCCCc1ccc(S(=O)(=O)c2c(C)cc(C)cc2C)cc1 [Compound 5b, 1,3,5-Trimethyl-2-(4-pentylbenzenesulfonyl)benzene]",<0.13,> 300,
"Cc1cc(C)c(S(=O)(=O)c2ccc(C3CCCCC3)cc2)c(C)c1 [Compound 5c, 2-(4-Cyclohexylbenzenesulfonyl)-1,3,5-trimethylbenzene]",<0.13,> 300,
"Cc1cc(C)c(S(=O)(=O)c2ccc(I)cc2)c(C)c1 [Compound 8a, 2-(4-Iodobenzenesulfonyl)-1,3,5-trimethylbenzene]",10,,
"COc1ccc(S(=O)(=O)c2c(C)cc(C)cc2C)cc1 [Compound 8b, 2-(4-Methoxybenzenesulfonyl)-1,3,5-trimethylbenzene]",21.1,,
"Cc1cc(C)c(S(=O)(=O)c2ccc(-c3ccc(F)nc3)cc2)c(C)c1 [Compound 9, 2-Fluoro-5-[4-(2,4,6-trimethylbenzenesulfonyl)phenyl]pyridine]",<0.13,> 300,
"Cc1cc(C)c(S(=O)(=O)c2ccc(O)cc2)c(C)c1 [Compound 10, 4-(2,4,6-Trimethylbenzenesulfonyl)phenol]",3.0,,
"Cc1cc(C)c(S(=O)(=O)c2ccc(OC3CCCCC3)cc2)c(C)c1 [Compound 11a, 2-(4-Cyclohexyloxybenzenesulfonyl)-1,3,5-trimethylbenzene]",<0.13,> 300,
"Cc1cc(C)c(S(=O)(=O)c2ccc(OC3CCN(C(=O)OC(C)(C)C)CC3)cc2)c(C)c1 [Compound 11b, 4-[4-(2,4,6-Trimethylbenzenesulfonyl)phenoxy]-piperidine-1-carboxylic acid tert-butyl ester]",<0.13,> 300,
"Cc1cc(C)c(S(=O)(=O)c2ccc(OC3CCNCC3)cc2)c(C)c1 [Compound 11c, 4-[4-(2,4,6-Trimethylbenzenesulfonyl)phenoxy]piperidine]",<0.13,> 300,
"Cc1cc(C)c(S(=O)(=O)c2ccc(OCCN)cc2)c(C)c1 [Compound 11d, 2-[4-(2,4,6-Trimethylbenzenesulfonyl)phenoxy]ethylamine]",<0.13,> 300,
"Cc1ccc(Nc2c(C)cc(C)cc2C)cc1 [Compound 14a, p-Tolyl-(2,4,6-trimethylphenyl)amine]",10.5,,
"Cc1cc(C)c(Nc2cc(Cl)cc(Cl)c2)c(C)c1 [Compound 14b, (3,5-Dichlorophenyl)-(2,4,6-trimethylphenyl)amine]",44.4,,
"Cc1cc(C)c(Nc2nc(C)c(C)s2)c(C)c1 [Compound 17, (4,5-Dimethylthiazol-2-yl)-(2,4,6-trimethylphenyl)amine]",<0.13,> 300,EPAC2 inhibitory activity (in words) (EPAC2): no activity
"CCc1cccn1S(=O)(=O)c1ccc(C)cc1 [Compound 20b, 2-Ethyl-1-(toluene-4-sulfonyl)-1H-pyrrole]",10,,
"CCc1cccn1S(=O)(=O)c1ccc(OC)cc1 [Compound 20c, 2-Ethyl-1-(4-methoxybenzenesulfonyl)-1H-pyrrole]",5,,
"CCc1cccn1S(=O)(=O)c1ccc(C(F)(F)F)cc1 [Compound 20e, 2-Ethyl-1-(4-trifluoromethyl-benzenesulfonyl)-1H-pyrrole]",<0.13,> 300,EPAC2 inhibitory activity (in words) (EPAC2): dramatic loss of EPAC inhibitory activity
"CCc1cccn1S(=O)(=O)c1ccccc1C [Compound 20f, 2-Ethyl-1-(toluene-2-sulfonyl)-1H-pyrrole]",7.5,,
"CCc1cccn1S(=O)(=O)c1cc(C)cc(C)c1 [Compound 20g, 1-(3,5-Dimethylbenzenesulfonyl)-2-ethyl-1H-pyrrole]",8.5,,
"CCc1cccn1S(=O)(=O)c1ccc(C)cc1C [Compound 20h, 1-(2,4-Dimethylbenzenesulfonyl)-2-ethyl-1H-pyrrole]",30.8,,
"Cc1cc(C)c(S(=O)(=O)n2ccc3ccccc32)c(C)c1 [Compound 22a, 1-(2,4,6-Trimethylbenzenesulfonyl)-1H-indole]",33.3,,EPAC2 inhibitory activity (in words) (EPAC2): almost retained activity
"COC(=O)c1ccc2c(ccn2S(=O)(=O)c2c(C)cc(C)cc2C)c1 [Compound 22b, 1-(2,4,6-Trimethylbenzenesulfonyl)-1H-indole-5-carboxylic acid methyl ester]",<0.13,> 300,EPAC2 inhibitory activity (in words) (EPAC2): dramatic loss of activity
"Cc1cc(C)c(S(=O)(=O)n2ccc3cc(C(=O)O)ccc32)c(C)c1 [Compound 22c, 1-(2,4,6-Trimethylbenzenesulfonyl)-1H-indole-5-carboxylic acid]",3.7,,EPAC2 inhibitory activity (in words) (EPAC2): less active with a moderate potency
"Cc1cc(C)c(S(=O)(=O)n2ccc3ncccc32)c(C)c1 [Compound 24a, 1-(2,4,6-Trimethylbenzenesulfonyl)-1H-pyrrolo[3,2-b]pyridine]",10.5,,
"Cc1cc(C)c(S(=O)(=O)n2ccc3cnccc32)c(C)c1 [Compound 24b, 1-(2,4,6-Trimethylbenzenesulfonyl)-1H-pyrrolo[3,2-c]pyridine]",4.5,,
"Cc1cc(C)c(S(=O)(=O)n2ccc3ccncc32)c(C)c1 [Compound 24c, 1-(2,4,6-Trimethylbenzenesulfonyl)-1H-pyrrolo[2,3-c]pyridine]",3.2,,
"Cc1cc(C)c(S(=O)(=O)n2ccc3cccnc32)c(C)c1 [Compound 24d, 1-(2,4,6-Trimethylbenzenesulfonyl)-1H-pyrrolo[2,3-b]pyridine]",16.7,,EPAC2 inhibitory activity (in words) (EPAC2): almost retained activity
"O=S(=O)(NCCNC/C=C/c1ccc(Br)cc1)c1cccc2cnccc12 [Compound H89, N-[2-[[3-(4-bromophenyl)-2-propenyl]amino]ethyl]-5-isoquinolinesulfonamide dihydrochloride, reference compound]",,,Effect on cAMP-induced type I PKA holoenzyme activation (type I PKA holoenzyme): blocked the type I or II PKA activities completely; Effect on cAMP-induced type II PKA holoenzyme activation (type II PKA holoenzyme): blocked the type I or II PKA activities completely
